What was measured:
HepG2 = assay: Antiproliferative activity against human HepG2 cells assessed as reduction in cell viability measured after 72 hrs; type: functional, cell-based; settings: HepG2, 72 h
MV4-11 [1] = assay: Induction of apoptosis in human MV4-11 cells assessed as necrotic cells at 1 uM incubated for 24 hrs by AnnexinV-FITC/PI staining based flow cytometry (reference value: 0%); type: functional
MV4-11 [2] = assay: Induction of apoptosis in human MV4-11 cells assessed as late apoptotic cells at 1 uM incubated for 24 hrs by AnnexinV-FITC/PI staining based flow cytometry (reference value: 5.21%); type: functional
MV4-11 [3] = assay: Induction of apoptosis in human MV4-11 cells assessed as increase in cleaved caspase 3 protein expression incubated for 24 hrs by western blot analysis; type: functional, cell-based; settings: dose 0.1-4 µM
[4] = Metabolic stability of the compound in rat plasma at 10 uM measured for 60 mins by LC-MS/MS analysis; type: ADME, cell-free; settings: 1 h
MV4-11 [5] = assay: Induction of cell cycle arrest in human MV4-11 cells assessed as accumulation of cells at G0/G1 phase at 0.4 uM incubated fo 36 hrs by propidium iodide staining based flow cytometry (reference value: 64%); type: functional
[6] = target: Calcium-dependent protein kinase 1 (Plasmodium falciparum) (UniProt P62344); assay: Inhibition of wild type full length Plasmodium falciparum PFCDPK1 (1 to 524 residues) expressed in mammalian expression system at 1 uM by KINOMEscan analysis
Chain of Calcium-dependent protein kinase 1 (Plasmodium falciparum) (P62344 2-524 limits assumed): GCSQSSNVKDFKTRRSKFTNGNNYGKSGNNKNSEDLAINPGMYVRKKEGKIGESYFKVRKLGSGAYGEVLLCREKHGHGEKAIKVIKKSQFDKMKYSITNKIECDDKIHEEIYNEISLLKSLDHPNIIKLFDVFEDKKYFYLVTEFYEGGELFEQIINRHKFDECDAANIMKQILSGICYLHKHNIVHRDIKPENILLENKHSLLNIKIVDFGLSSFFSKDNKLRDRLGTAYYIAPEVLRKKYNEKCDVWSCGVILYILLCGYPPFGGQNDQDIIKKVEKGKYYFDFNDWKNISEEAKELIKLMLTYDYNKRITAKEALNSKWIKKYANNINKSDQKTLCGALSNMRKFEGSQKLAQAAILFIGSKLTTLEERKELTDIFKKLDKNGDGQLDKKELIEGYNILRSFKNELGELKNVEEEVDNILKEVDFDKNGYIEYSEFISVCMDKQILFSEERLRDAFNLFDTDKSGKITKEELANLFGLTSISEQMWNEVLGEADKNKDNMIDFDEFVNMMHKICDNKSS

HL-60 = assay: Antiproliferative activity against human HL-60 cells assessed as reduction in cell viability measured after 72 hrs; type: functional, cell-based; settings: HL-60, 72 h
[7] = Inhibition of CDK1/CyclinA2 (unknown origin) by ADP-Glo assay; design: species or system Homo sapiens
MV4-11 [8] = assay: Induction of apoptosis in human MV4-11 cells assessed as late apoptotic cells at 2 uM incubated for 24 hrs by AnnexinV-FITC/PI staining based flow cytometry (reference value: 5.21%); type: functional
MV4-11 [9] = assay: Induction of apoptosis in human MV4-11 cells assessed as early apoptotic cells at 0.5 uM incubated for 24 hrs by AnnexinV-FITC/PI staining based flow cytometry (reference value: 1.42%); type: functional
MV4-11 [10] = assay: Induction of apoptosis in human MV4-11 cells assessed as necrotic cells at 4 uM incubated for 24 hrs by AnnexinV-FITC/PI staining based flow cytometry (reference value: 0%); type: functional
THP-1 = assay: Antiproliferative activity against human THP-1 cells assessed as reduction in cell viability measured after 72 hrs; type: functional, cell-based; settings: THP-1, 72 h
[11] = target: Cyclin-dependent kinase 9 (Homo sapiens) (UniProt P50750); assay: Inhibition of CDK9 in human MV4-11 cells assessed as reduction in RNA polymerase 2 phosphorylation at Ser2 residue incubated for 12 hrs by western blot analysis; type: cell-based; settings: dose 0.1-4 µM
Chain of Cyclin-dependent kinase 9 (Homo sapiens) (P50750 whole entry, the tested form may be a part): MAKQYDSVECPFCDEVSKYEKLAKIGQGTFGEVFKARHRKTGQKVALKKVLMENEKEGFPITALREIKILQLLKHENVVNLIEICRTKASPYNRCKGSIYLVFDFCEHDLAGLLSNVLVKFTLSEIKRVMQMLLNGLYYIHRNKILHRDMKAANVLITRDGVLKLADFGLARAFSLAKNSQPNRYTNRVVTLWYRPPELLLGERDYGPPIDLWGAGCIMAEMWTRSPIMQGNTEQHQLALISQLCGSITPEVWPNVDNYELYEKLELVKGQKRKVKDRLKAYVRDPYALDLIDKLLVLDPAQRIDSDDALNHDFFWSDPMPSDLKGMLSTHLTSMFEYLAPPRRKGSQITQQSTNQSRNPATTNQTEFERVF

MV4-11 [12] = assay: Antitumor activity against human MV4-11 cells xenografted in BALB/c mouse assessed as inhibition of tumor growth at 15 mg/kg, iv qd and measured every 2 days; type: functional; settings: MV4-11, 48 h, read-out: TGI
[13] = Toxicity in BALB/c mouse xenografted with human MV4-11 cells assessed as effect on body weight at 7.5 to 15 mg/kg, iv qd; type: organism-based; settings: in vivo, dose 7.5-15 mg/kg
MV4-11 [14] = assay: Downregulation of cyclin T1 protein expression in human MV4-11 cells incubated for 12 hrs by western blot analysis; type: functional, cell-based; settings: dose 0.1-4 µM
[15] = target: Serine/threonine-protein kinase SIK3 (Homo sapiens) (UniProt Q9Y2K2); assay: Inhibition of wild type partial length human QSK (90 to 395 residues) expressed in mammalian expression system at 1 uM by KINOMEscan analysis
Chain of Serine/threonine-protein kinase SIK3 (Homo sapiens) (Q9Y2K2 whole entry, looked up, the tested form may be a part): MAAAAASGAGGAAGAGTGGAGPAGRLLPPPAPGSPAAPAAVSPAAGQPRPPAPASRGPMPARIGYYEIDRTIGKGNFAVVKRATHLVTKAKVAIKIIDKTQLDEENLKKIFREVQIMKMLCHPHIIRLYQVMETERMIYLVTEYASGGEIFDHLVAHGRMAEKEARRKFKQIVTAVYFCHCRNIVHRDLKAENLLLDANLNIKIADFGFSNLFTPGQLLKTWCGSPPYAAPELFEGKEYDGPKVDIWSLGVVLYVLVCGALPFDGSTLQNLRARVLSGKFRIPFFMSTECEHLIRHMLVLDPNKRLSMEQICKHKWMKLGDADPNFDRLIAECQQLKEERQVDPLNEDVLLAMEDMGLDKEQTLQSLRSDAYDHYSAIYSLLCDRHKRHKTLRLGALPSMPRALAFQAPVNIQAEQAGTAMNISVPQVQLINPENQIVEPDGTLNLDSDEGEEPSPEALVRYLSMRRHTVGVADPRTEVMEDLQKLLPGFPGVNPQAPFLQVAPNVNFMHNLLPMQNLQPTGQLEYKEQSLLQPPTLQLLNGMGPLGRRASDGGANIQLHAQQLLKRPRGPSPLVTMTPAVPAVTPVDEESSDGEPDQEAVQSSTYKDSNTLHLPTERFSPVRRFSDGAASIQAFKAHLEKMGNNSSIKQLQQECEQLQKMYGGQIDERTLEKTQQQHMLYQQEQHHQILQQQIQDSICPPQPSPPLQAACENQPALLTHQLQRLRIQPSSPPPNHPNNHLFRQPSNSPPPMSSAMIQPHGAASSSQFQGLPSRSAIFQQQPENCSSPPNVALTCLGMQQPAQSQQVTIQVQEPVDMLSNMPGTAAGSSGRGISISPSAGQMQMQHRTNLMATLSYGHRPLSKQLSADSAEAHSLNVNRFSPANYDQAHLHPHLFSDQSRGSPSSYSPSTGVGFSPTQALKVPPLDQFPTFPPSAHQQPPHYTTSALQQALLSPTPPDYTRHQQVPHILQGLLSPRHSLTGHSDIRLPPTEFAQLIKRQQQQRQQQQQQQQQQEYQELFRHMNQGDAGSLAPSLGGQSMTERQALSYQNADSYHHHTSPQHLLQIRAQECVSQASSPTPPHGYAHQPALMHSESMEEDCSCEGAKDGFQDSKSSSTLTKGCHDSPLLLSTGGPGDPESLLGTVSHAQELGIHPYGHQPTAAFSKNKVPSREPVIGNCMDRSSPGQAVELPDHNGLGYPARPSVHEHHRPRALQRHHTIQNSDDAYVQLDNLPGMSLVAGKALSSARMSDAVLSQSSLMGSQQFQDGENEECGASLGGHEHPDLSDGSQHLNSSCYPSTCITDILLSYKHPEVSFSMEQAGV

MOLM-13 = assay: Antiproliferative activity against human MOLM-13 cells assessed as reduction in cell viability measured after 72 hrs; type: functional, cell-based; settings: MOLM-13, 72 h
[16] = target: NUAK family SNF1-like kinase 2 (Homo sapiens) (UniProt Q9H093); assay: Inhibition of wild type partial length human SNARK (22 to 333 residues) expressed in mammalian expression system at 1 uM by KINOMEscan analysis
Chain of NUAK family SNF1-like kinase 2 (Homo sapiens) (Q9H093 whole entry, the tested form may be a part): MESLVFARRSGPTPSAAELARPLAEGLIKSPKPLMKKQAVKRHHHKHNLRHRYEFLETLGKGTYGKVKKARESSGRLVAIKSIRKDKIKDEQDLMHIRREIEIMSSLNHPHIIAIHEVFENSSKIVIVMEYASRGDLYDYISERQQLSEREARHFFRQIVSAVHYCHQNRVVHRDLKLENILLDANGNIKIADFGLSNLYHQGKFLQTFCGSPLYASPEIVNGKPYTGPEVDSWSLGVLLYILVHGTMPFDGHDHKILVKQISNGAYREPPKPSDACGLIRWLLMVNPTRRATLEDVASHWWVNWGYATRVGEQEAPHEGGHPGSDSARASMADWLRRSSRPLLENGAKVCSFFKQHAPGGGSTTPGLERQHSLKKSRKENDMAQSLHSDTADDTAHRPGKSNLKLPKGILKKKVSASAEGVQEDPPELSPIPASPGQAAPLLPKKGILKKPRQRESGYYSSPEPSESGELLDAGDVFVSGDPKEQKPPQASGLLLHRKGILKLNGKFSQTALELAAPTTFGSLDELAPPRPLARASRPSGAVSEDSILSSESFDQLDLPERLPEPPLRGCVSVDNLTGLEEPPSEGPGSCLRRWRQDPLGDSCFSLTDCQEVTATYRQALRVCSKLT

MV4-11 [17] = assay: Induction of apoptosis in human MV4-11 cells assessed as increase in cleaved PARP-1 protein expression incubated for 24 hrs by western blot analysis; type: functional, cell-based; settings: dose 0.1-4 µM
HT-29 = assay: Antiproliferative activity against human HT-29 cells assessed as reduction in cell viability measured after 72 hrs; type: functional, cell-based; settings: HT-29, 72 h
CDK9/cyclin T1 = CDK9/cyclin T1 (Homo sapiens, UniProt P50750); assay: Inhibition of CDK9/CyclinT1 (unknown origin) by ADP-Glo assay; type: protein-complex assay
Chain of CDK9/cyclin T1 (O60563 whole entry): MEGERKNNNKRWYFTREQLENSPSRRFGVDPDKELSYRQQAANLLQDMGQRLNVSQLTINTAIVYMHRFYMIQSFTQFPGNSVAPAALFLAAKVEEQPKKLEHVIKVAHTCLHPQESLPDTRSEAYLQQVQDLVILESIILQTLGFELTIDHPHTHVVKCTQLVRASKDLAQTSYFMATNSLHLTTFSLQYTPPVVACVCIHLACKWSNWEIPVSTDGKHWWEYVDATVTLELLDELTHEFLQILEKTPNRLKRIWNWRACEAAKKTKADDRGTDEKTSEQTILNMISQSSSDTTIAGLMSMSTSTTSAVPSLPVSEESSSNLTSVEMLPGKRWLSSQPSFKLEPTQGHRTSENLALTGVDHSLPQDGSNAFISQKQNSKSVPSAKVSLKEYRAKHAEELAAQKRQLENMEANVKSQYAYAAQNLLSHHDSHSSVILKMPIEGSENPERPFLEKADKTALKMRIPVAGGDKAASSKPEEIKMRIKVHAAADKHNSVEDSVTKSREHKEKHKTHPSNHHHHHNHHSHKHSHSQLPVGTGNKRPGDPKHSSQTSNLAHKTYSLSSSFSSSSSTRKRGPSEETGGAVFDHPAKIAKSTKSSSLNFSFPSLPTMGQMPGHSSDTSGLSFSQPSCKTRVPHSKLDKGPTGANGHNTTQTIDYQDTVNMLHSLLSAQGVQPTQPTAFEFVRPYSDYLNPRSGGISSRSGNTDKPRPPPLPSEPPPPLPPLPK
Chain of CDK9/cyclin T1 (P50750 whole entry): as the sequence (P50750 whole entry, the tested form may be a part) above

SW480 = assay: Antiproliferative activity against human SW480 cells assessed as reduction in cell viability measured after 72 hrs; type: functional, cell-based; settings: SW480, 72 h
MV4-11 [18] = assay: Induction of apoptosis in human MV4-11 cells assessed as viable cells at 1 uM incubated for 24 hrs by AnnexinV-FITC/PI staining based flow cytometry (reference value: 93.4%); type: functional; settings: read-out: Activity
MV4-11 [19] = assay: Induction of cell cycle arrest in human MV4-11 cells assessed as accumulation of cells at G2/M phase at 0.1 uM incubated fo 36 hrs by propidium iodide staining based flow cytometry (reference value: 9.5%); type: functional
MV4-11 [20] = assay: Induction of cell cycle arrest in human MV4-11 cells assessed as accumulation of cells at S phase at 0.4 uM incubated fo 36 hrs by propidium iodide staining based flow cytometry (reference value: 26.5%); type: functional
MV4-11 [21] = assay: Induction of cell cycle arrest in human MV4-11 cells assessed as accumulation of cells at G2/M phase at 0.2 uM incubated fo 36 hrs by propidium iodide staining based flow cytometry (reference value: 9.5%); type: functional
[22] = target: Cyclin-dependent kinase 4/cyclin D1 (Homo sapiens) (UniProt P11802+P24385); assay: Inhibition of wild type full length human CDK4 (1 to 303 residues)/CyclinD1 expressed in mammalian expression system at 1 uM by KINOMEscan analysis
MV4-11 [23] = assay: Induction of cell cycle arrest in human MV4-11 cells assessed as accumulation of cells at S phase at 0.2 uM incubated fo 36 hrs by propidium iodide staining based flow cytometry (reference value: 26.5%); type: functional
[24] = target: Cyclin-dependent kinase 9 (Homo sapiens) (UniProt P50750); assay: Inhibition of CDK9 in human MV4-11 cells assessed as reduction in Mcl-1 protein expression incubated for 12 hrs by western blot analysis; type: cell-based; settings: dose 0.1-4 µM
[25] = target: Rho-associated protein kinase 2 (Homo sapiens) (UniProt O75116); assay: Inhibition of wild type partial length human ROCK2 (1 to 431 residues) expressed in mammalian expression system at 1 uM by KINOMEscan analysis
Chain of Rho-associated protein kinase 2 (Homo sapiens) (O75116 whole entry, looked up, the tested form may be a part): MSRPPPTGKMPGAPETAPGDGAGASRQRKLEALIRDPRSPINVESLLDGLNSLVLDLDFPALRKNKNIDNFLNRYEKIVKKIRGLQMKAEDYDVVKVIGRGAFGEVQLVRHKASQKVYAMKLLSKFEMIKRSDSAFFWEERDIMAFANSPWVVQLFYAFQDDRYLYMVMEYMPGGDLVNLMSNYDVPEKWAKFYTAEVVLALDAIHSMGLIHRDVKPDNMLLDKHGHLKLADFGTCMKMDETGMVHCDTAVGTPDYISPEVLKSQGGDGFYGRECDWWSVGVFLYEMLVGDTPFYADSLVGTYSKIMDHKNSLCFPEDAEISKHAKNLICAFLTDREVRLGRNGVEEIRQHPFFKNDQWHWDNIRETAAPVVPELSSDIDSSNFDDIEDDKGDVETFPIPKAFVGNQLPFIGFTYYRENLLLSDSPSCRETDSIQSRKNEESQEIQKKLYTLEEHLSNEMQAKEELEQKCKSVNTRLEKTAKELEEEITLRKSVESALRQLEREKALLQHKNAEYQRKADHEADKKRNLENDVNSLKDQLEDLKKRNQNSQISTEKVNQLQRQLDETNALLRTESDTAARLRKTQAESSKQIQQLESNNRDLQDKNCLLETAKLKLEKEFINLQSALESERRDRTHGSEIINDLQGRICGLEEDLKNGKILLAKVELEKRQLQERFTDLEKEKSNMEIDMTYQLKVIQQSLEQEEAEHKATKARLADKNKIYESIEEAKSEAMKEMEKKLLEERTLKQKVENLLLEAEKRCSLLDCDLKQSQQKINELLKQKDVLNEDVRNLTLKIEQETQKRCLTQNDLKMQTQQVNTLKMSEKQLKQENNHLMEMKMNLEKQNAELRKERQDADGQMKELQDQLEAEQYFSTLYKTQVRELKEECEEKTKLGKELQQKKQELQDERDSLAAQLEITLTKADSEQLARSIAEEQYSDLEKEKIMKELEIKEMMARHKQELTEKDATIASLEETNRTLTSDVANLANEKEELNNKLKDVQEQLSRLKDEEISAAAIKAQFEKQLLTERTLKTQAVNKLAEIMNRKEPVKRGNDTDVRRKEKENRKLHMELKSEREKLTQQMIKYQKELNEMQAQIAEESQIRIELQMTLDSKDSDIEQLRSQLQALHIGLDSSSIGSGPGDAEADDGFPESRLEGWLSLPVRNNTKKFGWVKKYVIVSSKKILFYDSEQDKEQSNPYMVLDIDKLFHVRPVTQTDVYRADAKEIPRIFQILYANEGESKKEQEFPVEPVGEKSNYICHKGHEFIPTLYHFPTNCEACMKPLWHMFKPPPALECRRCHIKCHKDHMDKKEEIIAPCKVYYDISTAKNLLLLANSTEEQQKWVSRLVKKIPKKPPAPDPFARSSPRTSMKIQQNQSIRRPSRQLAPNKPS

[26] = target: Cyclin-dependent kinase 12 (Homo sapiens) (UniProt Q9NYV4); assay: Inhibition of wild type partial length human CDK12 (697 to 1077 residues) to expressed in mammalian expression system at 1 uM by KINOMEscan analysis
CDK2/Cyclin A2 = CDK2/Cyclin A2 (Homo sapiens, UniProt P24941); assay: Inhibition of CDK2/CyclinA2 (unknown origin) by ADP-Glo assay; type: protein-complex assay
BT-549 = assay: Antiproliferative activity against human BT-549 cells assessed as reduction in cell viability measured after 72 hrs; type: functional, cell-based; settings: BT-549, 72 h

Q: With COc1cc(O)c2c(=O)cc(-c3ccc(N4CCN(C)CC4)cc3)oc2c1C1=CCN(C)CC1 as the compound, how does the IC50 (HepG2) read?
A: 0.41 µM

Q: What about the Activity (MV4-11 [1]) of the same compound?
A: 0.01%

Q: What about the Activity (MV4-11 [2]) of the same compound?
A: 20.9%

Q: What about the Activity (MV4-11 [3]) of the same compound?
A: Dose-Dependent Effect

Q: What about the Stability [4] of the same compound?
A: Stable

Q: What about the Activity (MV4-11 [5]) of the same compound?
A: 81.2%

Q: What about the inhibition [6] of the same compound?
A: 2.2%

Q: What about the IC50 (HL-60) of the same compound?
A: 0.18 µM

Q: What about the IC50 [7] of the same compound?
A: 4.18 µM

Q: And the Activity (MV4-11 [8])?
A: 29.8%

Q: What about the Activity (MV4-11 [9]) of the same compound?
A: 1.96%

Q: What about the Activity (MV4-11 [10]) of the same compound?
A: 0.42%

Q: What about the IC50 (THP-1) of the same compound?
A: 0.45 µM

Q: What about the inhibition [11] of the same compound?
A: Dose-Dependent Effect

Q: And the inhibition in vivo at 15 mg/kg (MV4-11 [12])?
A: 65%

Q: And the Activity [13]?
A: Non-Toxic

Q: And the inhibition (MV4-11 [14])?
A: Dose-Dependent Effect

Q: What about the inhibition [15] of the same compound?
A: 3.3%

Q: And the IC50 (MOLM-13)?
A: 0.16 µM

Q: And the inhibition [16]?
A: 6.2%

Q: What about the Activity (MV4-11 [17]) of the same compound?
A: Dose-Dependent Effect

Q: What about the IC50 (HT-29) of the same compound?
A: 1.06 µM

Q: And the IC50 (CDK9/cyclin T1)?
A: 0.0067 µM

Q: What about the IC50 (SW480) of the same compound?
A: 3.45 µM

Q: What about the viability at 1 µM (MV4-11 [18]) of the same compound?
A: 69.1%

Q: What about the Activity (MV4-11 [19]) of the same compound?
A: 8.5%

Q: And the Activity (MV4-11 [20])?
A: 12.8%

Q: And the Activity (MV4-11 [21])?
A: 7.1%

Q: What about the inhibition [22] of the same compound?
A: 5.3%

Q: What about the Activity (MV4-11 [23]) of the same compound?
A: 19%

Q: What about the inhibition [24] of the same compound?
A: Dose-Dependent Effect

Q: And the inhibition [25]?
A: 6%

Q: What about the inhibition [26] of the same compound?
A: 0%

Q: And the IC50 (CDK2/Cyclin A2)?
A: 0.533 µM

Q: And the IC50 (BT-549)?
A: 0.21 µM
